Tests used:
Caco-2 cells = test: Wound healing (scratch) assay; format: cell-based, human; conditions: pre-incubated with 0.1 μM CID 2745687
ERK1/2 signaling pathway = conditions: pre-treated with 0.1 μM CID 2745687 for 1 hour

Compound	wound-healing activity after GPR35 inhibition (Caco-2 cells)	ERK1/2 phosphorylation increase when treated with CID 2745687 (ERK1/2 signaling pathway)
CCCOc1ccccc1-c1nc2nn[nH]c2c(=O)[nH]1 [zaprinast]	abolished	reversed
human epidermal growth factor [EGF, a well-known wound therapeutic agent, positive control]	not inhibited	

Source: US12576137B2, “Collagen hydrolysate comprising GPCR ligand peptide” (Industry-Academic Cooperation Foundation, Yonsei University, priority 2021, dated 2026)
